Assay results as given in patent US20260151363A1, “MELANOGENESIS INHIBITION COMPOSITIONS AND METHODS OF USE THEREOF” (MDI BIOLOGICAL LABORATORY, priority 2023, published 2026).
Where two headings read alike, the source gives them in different places.

Key:
melanin production = assay: Melanin production and toxicity, ML233 analogs in parallel with ML233 (serial dilution); conditions: for toxicity: 25 μM
Experimental: The ML233 analogs were tested in parallel with serial dilution in DMSO: at 25 μM, 12.5 μM, […], 3.12 5 μM, 1.5625 μM and […].

zebrafish embryos [1] = assay: Pigmentation of zebrafish embryos (micrographs); assay type: in vivo
Experimental: Zebrafish embryos were allowed to develop in the presence of ML233 and the effects of ML233 on pigmentation was analyzed. ML233 was dissolved in carrier Dimethylsulfoxide (DMSO). Embryos were exposed to ML233 beginning at four hours post-fertilization and ending at 48 hours post-fertilization. Dimethylsulfoxide (DMSO) was used as a negative control. ML233 dosages tested were 2.5 micromolar, five micromolar, and 10 micromolar (FIG. 1A).
The effect of ML233 on pigmentation was analyzed in zebrafish embryos at 38 hours post-fertilization when larvae were highly pigmented. Embryos were treated with ML233 at the following concentrations: 5 micromolar, 10 micromolar, and 15 micromolar. The carrier, DMSO, was used as a negative control. Pigmentation was analyzed six hours (FIG. 2A) and 24 hours after ML233 addition (FIG. 2B).

zebrafish embryos [2] = assay: Percent melanin quantity in zebrafish embryos; assay type: in vivo
Experimental: The effect of ML233 on percent melanin quantity was assayed in zebrafish embryos beginning at 4 hours post-fertilization and ending at 48 hours. Developing embryos were treated with ML233 in DMSO carrier at varying dosages, or DMSO as a negative control or with phenylthiourea (PTU) as a positive control.

tyrosinase [3] = assay: Tyrosinase activity in treated zebrafish embryos (absorbance of L-DOPA); assay type: in vivo
Experimental: To determine the effect of ML233 on tyrosinase activity, zebrafish embryos were treated with ML233 at the following concentrations: 0.5 micromolar, 1.25 micromolar, 2.5 micromolar, five micromolar, 10 micromolar, and 15 micromolar ML233 (FIG. 3A). DMSO was used as a carrier and the tyrosinase inhibitor PTU was used as a positive control.

tyrosinase [4] = assay: In vitro tyrosinase activity (FIG. 3B); assay type: biochemical; conditions: compared to DMSO
Source text: The effect of ML233 on tyrosinase activity was also explored in in vitro experiments.

mushroom TYR = assay: Mushroom TYR conversion of L-DOPA to melanin in vitro (FIG. 3C); assay type: biochemical; conditions: 20 μM; compared to DMSO
Experimental: To determine whether ML233, a small inhibitor of melanogenesis, acts directly on tyrosinase (TYR) activity in vitro, the activity of mushroom TYR was assessed via measurement of its capacity to convert L-DOPA to melanin in vitro using Kojic Acid at 100 μM as a positive control.

zebrafish embryos [5] = assay: Zebrafish embryo viability / toxicity; assay type: in vivo; conditions: 2.5, five
Source text: Studies were undertaken to evaluate the effect of ML233 on embryo viability. […] The number of viable and dead embryos at 1 day post fertilization (dpf), 2 dpf, 3 dpf and 4 dpf and at various doses of ML233 was compared to embryo viability in negative controls, which included embryos treated with the carrier DMSO or untreated embryos. (FIG. 4A).

[6] = tested on: B16F10 murine melanoma cell line; assay: B16F10 melanoma cell proliferation / viability; assay type: cell-based; conditions: Mus musculus, B16-F10
Experimental: ML233 reduced pigmentation in a mammalian melanoma cell line. In vivo, in vitro, and computational studies described here supported the hypothesis that ML233 was a direct inhibitor of TYR protein expression and function. The effects of ML233 and cisplatin on the proliferation of B16F-10 murine melanoma cells in vitro was analyzed. To determine the effects of conservation in higher vertebrate species, ML233 activity in the B16F10 murine melanoma cell line was tested. B16F10-cell proliferation was analyzed after ML233 treatment to determine IC50. A 50% reduction in cell viability at concentrations of ML233 between 5 and 10 μM was observed (FIG. 5A). Cells were treated with various concentration of ML233 or cisplatin and the cell viability of control percent versus the concentration of ML233 or cisplatin (in μM) was analyzed (FIGS. 5A and 5B).

[7] = tested on: B16F10 murine melanoma cells; assay: Melanin production in B16F10 cells (OD 410, IBMX-stimulated); assay type: cell-based
Experimental: To determine if ML233 could inhibit pigmentation of […] cells at low ML233 concentrations (without effects on cell proliferation), melanin production was analyzed in B16F10 cells after 24 hours of treatment with 0.625 μM, 1.25 μM, 2.5 μM, or 5 μM of ML233. Observation of cell pellets after centrifugation confirmed that ML233 function to inhibit melanin production was conserved in mammals (data not shown). The effect of ML233 and 3-isobutyl-1-methylxanthine (IBMX) on melanin production was analyzed in B16F10 murine melanoma cells. IBMX is a non-selective phosphodiesterase inhibitor, which induced melanin production in B16F10 murine melanoma cells. Melanin production was measured in cells treated with IBMX alone (100 micromolar), and IBMX in conjunction with: 0.625 micromolar ML233, 1.25 micromolar ML233, 2.5 micromolar ML233, and five micromolar ML233, as well as in negative control cells treated with DMSO vehicle alone. Melanin production in treated cells was measured using optical density (FIG. 6A) at a wavelength of 410 nm (OD value 410). Ratios with the total quantity of protein (OD value 562) were calculated (FIG. 6B). […] P-values are indicated in the bar charts.

tyrosinase [8] = assay: Tyrosinase expression by Western blot and densitometry (FIG. 9); conditions: 15 μM
Experimental: An analysis of tyrosinase expression after ML233 treatment was performed. […] Quantitative analysis was also performed using densitometry of tyrosinase expression after ML233 treatment at 15 μM of the Western blot data (FIG. 9B). DMSO was a negative control, while phenylthiourea (PTU), which is a potent inhibitor of human tyrosinase), was used as a positive control. CRISPR was used as a specificity control of the antibody used in the analysis, where CRISPR was directed against the tyrosinase gene.

[9] = tested on: tyr, dct, and mitfa mRNA expression; assay: RT-qPCR of tyr, dct and mitfa mRNA in zebrafish embryos; assay type: in vivo
Experimental: (§1) Example 10: Tyrosinase gene expression was not abolished by ML233 treatmentTo better understand the molecular action of ML233 on skin pigmentation and melanogenesis, the expression of genes involved in melanogenesis, including tyrosinase (tyr), dopachrome tautomerase (dct), and microphthalmia-associated transcription factor (mitfa), the latter which is known to control melanocyte formation and TYR expression, was analyzed.

mitfa and tyr genes = assay: In situ hybridization of mitfa and tyr in zebrafish embryos; assay type: in vivo; conditions: for tyr mRNA detection (in situ hybridization): embryos at 48 hpf, treated between 24 and 48 hpf
Experimental: as §1

zebrafish embryos [10] = assay: Bulk RNAseq and GSEA in WT and aplnr KO zebrafish embryos; assay type: in vivo; conditions: 0.5 μM
Source text: Because ML233 is an agonist of the apelin receptors, ML233 driven differential expression in an apelin dependent and independent manner was investigated. […] A clear separation in gene expression between the WT and KO backgrounds was observed (FIG. 10C).

B16F10 (murine melanoma) = assay: Tyrosinase protein expression (Western blot) and pigmentation in B16F10 cells; assay type: cell-based; conditions: 5 μM
Experimental: To study these two possibilities, an antibody raised against the human tyrosinase protein was used. The capacity of the antibody to recognize TYR in two different mammalian cell lines (FIG. 11A): B16F10 (murine melanoma) and A375 (human melanoma) was tested. Using the validated antibody, the level of tyrosinase protein expression by Western blot in control DMSO and 5 μM ML233 treated cells (FIG. 11B) was analyzed.

[11] = tested on: ME1154B human melanoma line; assay: cells; assay type: cell-based; conditions: ME1154B 3D organoids, read-out: IC50 viability/proliferation
Experimental: (§2) Because ML233 affected B16F10 murine melanoma-cell proliferation, the proliferative potential of human metastatic melanoma was determined. Patient-derived xenograft organoids (PDXOs), which were 3D in vitro models generated from patient tumors, were used. The effect of ML233 treatment (between 0.001 μM and 10 μM) in two different human melanoma cell lines collected from metastasis, ME1154B and ME2319B (Crown Bioscience). These two melanoma lines differed in their sensitivity to both ML233 and the control molecule, staurosporine (STS), in 3D organoids (FIGS. 12A-12B).

[12] = tested on: ME2319B human melanoma line; assay: PDXO viability/proliferation, ME2319B; assay type: cell-based; conditions: ME2319B 3D organoids
Experimental: as §2

[13] = serial dilution 25 μM to 0.78125

## CC1=C/C(=N/OS(=O)(=O)c2ccccc2)C(C(C)C)=CC1=O [(i), [(Z)-(5-methyl-4-oxo-2-propan-2-ylcyclohexa-2,5-dien-1-ylidene)amino]benzenesulfonate]
Melanin production
  toxicity: higher toxicity
Melanin production; [13]
  inhibition of melanin production: Inhibition of melanin production was also observed

## CC1=CC(=O)C(C(C)C)=C/C1=N\OS(=O)(=O)c1ccccc1 [(iii), [(E)-(2-methyl-4-oxo-5-propan-2-ylcyclohexa-2,5-dien-1-ylidene)amino]benzenesulfonate]
Melanin production
  toxicity: higher toxicity
Melanin production; [13]
  inhibition of melanin production: Inhibition of melanin production was also observed

## CC1=CC(=O)C(C2CCCCC2)=C/C1=N\OS(=O)(=O)c1ccccc1 [ML233, (E)-2-cyclohexyl-5-methyl-4-(phenylsulfonyloxyimino)cyclohexa-2,5-dienone]
Zebrafish embryos [1]; 2.5, five and 10 micromolar, exposure 4 to 48 hours post-fertilization, vs DMSO
  pigmentation of embryos: visible decrease in pigmentation
Zebrafish embryos [1]; treated at 38 hours post-fertilization, 5, 10, 15 micromolar, six hours and 24 hours after addition
  pigmentation of embryos: reduced pigmentation at all dosages
Zebrafish embryos [2]; 0.5 to 15 micromolar, 4 to 48 hours post-fertilization
  melanin production (percent melanin quantity): significantly inhibited melanin production at all levels tested
Zebrafish embryos [2]; 5 micromolar and above
  melanin quantity compared with PTU: comparable to treatment with PTU
Tyrosinase [3]; 10 micromolar and 15 micromolar ML233 groups
  percent of tyrosinase activity compared with PTU: comparable to PTU
Tyrosinase [3]; concentration as low as 0.5 micromolar
  tyrosinase activity: significantly reduced
Tyrosinase [4]; 20 micromolar
  reduction of tyrosinase activity: greater than 40%
Tyrosinase [4]; 30 micromolar
  reduction of tyrosinase activity: 50%
Mushroom TYR
  reduction of melanogenesis (L-DOPA to melanin): ~40%
Zebrafish embryos [5]; 10 and 20 micromolar
  percent viability at day four post fertilization: No deleterious effects on zebrafish viability
Zebrafish embryos [5]; 10 and 20 micromolar from 4 hours post-fertilization
  toxicity (viable and dead embryos at 1 to 4 dpf): low toxicity at effective concentrations
[6]; B16F10, read-out: concentration giving 50% reduction in cell viability
  IC50: 5 to 10 µM
[6]; B16F10 proliferation, read-out: in vitro IC50
  IC50: 10 µM
[7]; IBMX 100 micromolar plus 0.625, 1.25, 2.5 or five micromolar ML233
  melanogenesis (melanin OD 410; ratio to protein OD 562): reduced melanogenesis in mammalian melanoma cells at all dosages
[7]; between 0.625 and 5 μM
  B16F10 cells survival: without affecting B16F10 cells survival
[7]; concentrations as low as 0.625 μM
  melanoma-cell pigmentation (absorbance quantification of melanin): significantly reduced
Melanin production; 3.125 μM and lower concentrations
  inhibition of melanin production: very efficient at inhibiting melanin production
Tyrosinase [8]
  tyrosinase expression (Western blot): tyrosinase expression was inhibited
[9]; 5 μM and greater
  tyr expression by RT-qPCR: Significantly decreased
[9]; 20 μM, compared to DMSO-treated embryos
  maximum reduction of tyr expression: ~40%
[9]; any concentration
  mitfa expression by RT-qPCR: not significantly dysregulated
[9]; embryos at 2 dpf after 1 day of treatment
  tyr, dct, and mitfa mRNA expression by RT-qPCR: mild reduction of gene expression
Mitfa and tyr genes; 2 dpf after 1 day of 15 μM
  mitfa and tyr gene expression in melanocytes (in situ hybridization): still expressed in melanocytes
Mitfa and tyr genes
  tyr mRNA detection (in situ hybridization): highly detectable
Zebrafish embryos [10]
  impact on biological processes (GSEA): did not significantly impact biological processes
B16F10 (murine melanoma)
  pigmentation of cells: strong reduction in the pigmentation
B16F10 (murine melanoma); vs DMSO
  TYR protein expression normalized with Beta-actin: no significant reduction of TYR protein expression
[11]
  IC50: 1.65 µM
[12]; between 0.001 μM and 10 μM
  viability: did not affect ME2319B viability at any concentration tested

## NC(=S)Nc1ccccc1 [PTU, phenylthiourea, reference compound]
Mitfa and tyr genes
  tyr mRNA detection (in situ hybridization): highly detectable

## CN[C@@H]1C[C@H]2O[C@@](C)([C@@H]1OC)n1c3ccccc3c3c4c(c5c6ccccc6n2c5c31)C(=O)NC4 [STS, staurosporine, reference compound]
[12]; Homo sapiens
  IC50: 0.0025 µM

## [(E)-(5-methyl-4-oxo-2-propan-2-ylcyclohexa-2,5-dien-1-ylidene)amino]4-methylbenzenesulfonate [(ii)]
Melanin production; [13]
  inhibition of melanin production: Inhibition of melanin production was also observed
